Data published in patent US20160175412A1, “PREVENTION OF TYPE 1 DIABETES BY TREG VACCINATION WITH AN INSULIN MIMETOPE” (DANA-FARBER CANCER INSTITUTE, INC., priority 2010, published 2016).
Where no end group is shown, it is not given here.

Assays:
[1] = tested on: IAg^7; assay: peptide binding to MHC class II IAg7; set-up: species or system mouse; conditions: MHC class II IAg^7
Text: The natural Insulin B:9-23 peptide is known to be associated with Type I diabetes. This peptide binds with poor affinity to IAg^7 in multiple binding registers.
Chromogranin A was recently identified as the antigenic source of the highly pathogenic BDC2.5 T cell clone associated with Type I diabetes. WE14 is naturally processed from Chromogranin A by a furin-like protease. […] Studies have shown that this epitope only partially fills the peptide binding groove.
(§1) The inventors performed similar protocols of antigen-specific Treg conversion studies to prevent the development of spontaneous diabetes in NOD mice by injecting DEC205 fusion antibodies that contain the beta chain of insulin. […] The inventors hypothesized that weak epitopes may fail to induce efficient Treg conversion, and we initiated studies using Insulin B:9-23 TCR transgenic mice and identified in T cell proliferation assays insulin mimetopes that stimulate better than the Insulin B:9-23 peptide itself because of an increased binding capacity to MHC class II IAg^7, compared to the aforementioned Insulin B:9-23 peptide. In fact such mimetopes achieved better conversion of naive T cells expressing the transgenic TCR. […]

[2] = tested on: NOD InsB:9-23 Tg T cells; assay: thymidine incorporation T cell proliferation assay; type: cell-based, mouse; conditions: Insulin B:9-23 TCR transgenic T cells
Text: A key feature of the adaptive immune response is the ability of antigen-specific T cells to rapidly proliferate following antigenic-stimulation. Assays to assess the proliferative activity of antigen-specific T cells are a core tool to allow for evaluation of TCR- and MHC-binding properties based on the growth rate of the T cell populations after stimulation with a defined amount of antigen. A historically established assay is the detection of tritiated thymidine ^3H uptake. Therefore CD4+ T-cells from Rag def. NOD mice expressing a transgenic TCR for the a peptide of interest (e.g., Insulin B 9:23 peptide) are isolated by the use of a magnetic bead separation approach. Purified CD11^+DCs from normal NOD mice are used as antigen-presenting cells and irradiated. To induce proliferation of antigen-specific CD4^+ T cells, co-cultures are set up with naïve Insulin-specific CD4^+ T cells in 200 μl RPMI1640 medium supplemented with 10% (vol/vol) FCS in 96-well round-bottomed plates. Soluble peptides (e.g., natural InsulinB9:23 peptide) or mimetopes (e.g., Insulin mimetopes) are added to the cultures in various concentration (10 μg/ml to 0.01 μg/ml). Analysis of proliferation of antigen-specific T cells is performed by incorporation of ^3H-thymidine added for the last 12 hours of a 70 hours culture period followed by scintillation counting. […]

[3] = tested on: T cells with a specific transgenic TCR for the K^d54-68 peptide; conditions: cited from earlier work
[4] = molecular target: T1, IAu (Mus musculus, UniProt P06344+P14438); conditions: presented by IAu; cited from earlier work
T1 sequence (P14438 1-227): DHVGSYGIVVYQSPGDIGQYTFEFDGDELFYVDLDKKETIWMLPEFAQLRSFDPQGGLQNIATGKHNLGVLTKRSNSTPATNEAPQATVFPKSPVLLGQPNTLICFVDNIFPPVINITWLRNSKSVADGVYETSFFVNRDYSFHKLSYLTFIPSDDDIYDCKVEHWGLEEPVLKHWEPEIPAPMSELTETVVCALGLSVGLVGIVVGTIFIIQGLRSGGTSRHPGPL
T1 sequence (P06344 28-263): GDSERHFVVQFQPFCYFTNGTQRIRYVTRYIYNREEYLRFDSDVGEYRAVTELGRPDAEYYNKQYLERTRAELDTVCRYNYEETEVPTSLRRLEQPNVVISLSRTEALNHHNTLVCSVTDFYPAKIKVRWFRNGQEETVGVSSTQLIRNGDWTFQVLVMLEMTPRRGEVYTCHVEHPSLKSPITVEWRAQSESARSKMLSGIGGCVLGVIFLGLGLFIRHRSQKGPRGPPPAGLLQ

[5] = tested on: IAg^7; conditions: cited from earlier work
[6] = tested on: BDC2.5 T cells; conditions: cited from earlier work
[7] = tested on: HA(107-119) TCR transgenic Foxp3GFP-reporter T cells; assay: in vivo HA-specific Treg conversion, congenic adoptive-transfer system; set-up: species or system mouse; conditions: injection of mTOR-inhibitor
Protocol: (b) In vivo conversion of naïve CD4+CD25-T cells expressing a transgenic TCR of interest into Treg cells using a congenic transfer system. HA(107-119)TCR transgenic CD4+/Foxp3-/GFP Thy1.1+ cells are transferred iv into a host such as a Balb/c thy1.2+ mouse. A to single dose of a covalent conjugate of […] fusion antibody is administered ip. Analysis of Foxp3 expression in CD4-enriched Thy1.1+ spleenocytes and lymph nodes is conducted after 14 days flow cytometrically.
For the exploitation of antigen-specific Treg induction to interfere with unwanted immunity as diabetes the inventors performed optimization studies in order to achieve stable de novo differentiation of naive T cells into Tregs in sufficient numbers. Therefore we aimed at using combinations of compounds that enhance conversion, selectively expand the generated Tregs and allow for maintenance of the Treg phenotype. […] To induce rapid expansion of these Tregs the inventors injected the mice with IL-2 mixed with an optimized amount of a particular IL-2 monoclonal antibody (IL-2/IL-2 ab complexes) for a short period of 3 days at the end of the conversion period. […] Moreover, these Tregs were stable and persisted over a period of 4 months, which is an important feature as it allows for prospective induction to suppress unwanted immune responses.

[8] = tested on: NOD mice; assay: prevention of spontaneous diabetes in NOD mice; type: in vivo, mouse; conditions: injection into young NOD mice
Text: The inventors have been successful in inducing HY-specific Treg from naIve T cells in wt female B6 mice that were infused with HY-peptide and visualized with HY-peptide, class II tetramers (1). However, a similar approach to prevent diabetes in NOD mice by injecting insulin B:9-23 peptide into young NOD mice failed.
as §1, with “TCR. The inventors then studied the impact of these insulin-derived mimetopes in young NOD mice on diabetes development via subimmunogenic peptide delivery using either newly designed DEC205 peptide fusion antibodies (see description below) or peptide-infusing mini-osmotic pumps.” for “TCR.”

**Q.** With “InsMim3 peptide mimetope: SEQ ID NO: 2, VEALYLVCGEEG; insulin mimetope, p9 Arginine exchanged to Glutamic acid (InsMim3 peptide mimetope)” as the compound, how does the “MHC binding compared with natural Insulin B:9-23 peptide” value [1] read?
**A.** enhanced MHC binding

**Q.** What about the “stimulation of T cells compared with natural Insulin B:9-23 peptide” value [2] of the same compound?
**A.** better stimulation of T cells

**Q.** Which results are given for “K^d54-68 peptide: SEQ ID NO: 6, QEGPEYWEEQTQRAK; MHC class I derived processed peptide presented by IAb (Kd 54-68 peptide)”?
**A.** agonist strength ([3]; MHC-derived transplantation antigen): weak agonist; proliferation of specific TCR transgenic T cells ([3]; dendritic cells pulsed with peptide): not able to stimulate the proliferation

**Q.** With “Act-11 MBP: SEQ ID NO: 8, Ac-ASQKRPSQRHG; acetylated N-terminal myelin basic protein epitope” as the compound, how does the epitope strength [4] read?
**A.** weak epitope

**Q.** Which “binding to IAg^7 (MHC-binding)” value [5] does the source give for “pS3 peptide: SEQ ID NO: 5, RLGLWVRME; strong stimulating mimetope of WE14 (pS3 peptide mimetope)” here?
**A.** improved MHC-binding

**Q.** What about the “stimulation of BDC2.5 T cells” value [6] of the same compound?
**A.** strong stimulating mimetope

**Q.** What does the source list for “WE14: SEQ ID NO: 4, WSRMDQLAKELTAE; naturally processed from Chromogranin A (WE14 peptide)”?
**A.** binding to IAg^7 (MHC-binding) [5]: weakly; stimulation of BDC2.5 T cells [6]: poor stimulation

**Q.** Which “frequency of newly generated HA-specific Foxp3+ Tregs” value [7] does the source give for `CO[C@H]1C[C@@H]2CC[C@@H](C)[C@@](O)(O2)C(=O)C(=O)N2CCCC[C@H]2C(=O)O[C@H]([C@H](C)C[C@@H]2CC[C@@H](OCCO)[C@H](OC)C2)CC(=O)[C@H](C)/C=C(\C)[C@@H](O)[C@@H](OC)C(=O)[C@H](C)C[C@H](C)/C=C/C=C/C=C/1C` [Everolimus] here?
**A.** substantially increases

**Q.** Which prevention of diabetes [8] does the source give for “natural Insulin B:9-23 peptide: SEQ ID NO: 1, SHLVEALYLVCGERG; natural peptide associated with Type I diabetes (Insulin B peptide)” here?
**A.** failed

**Q.** What about the “binding to IAg^7 (MHC-binding)” value [5] of the same compound?
**A.** poor affinity
